We go through 4 molecules from article PMC11284788, “NN1213 – A Potent, Long-Acting, and Selective Analog of Human Amylin” (Journal of Medicinal Chemistry, 2024).

The kinetic solubility is solubility judged after dilution from a stock solution rather than from solid.

Each structure is given as a SMILES string. In brackets after ≈: the same amount, converted by molar mass. Numbered stars: 1 amine (or outer) side, 2 acyl side, 3 side chain; on linkers, the order of the positions; unused ones are H or OH. Bridge positions count the residues as written; N and C are the ends. Side chains are listed from the residue outwards. Peptide text beside a SMILES is read from it. * marks the point of attachment. C20 diacid = O=C(O)CCCCCCCCCCCCCCCCCCC(=O)*; γGlu = O=C(O)[C@H](CCC(=O)[*:2])N[*:1]; AEEA = NCCOCCOCC(=O)O

One series addresses T1, hAMY3R (Homo sapiens, UniProt O60896+P30988).
T1 sequence (P30988 25-474): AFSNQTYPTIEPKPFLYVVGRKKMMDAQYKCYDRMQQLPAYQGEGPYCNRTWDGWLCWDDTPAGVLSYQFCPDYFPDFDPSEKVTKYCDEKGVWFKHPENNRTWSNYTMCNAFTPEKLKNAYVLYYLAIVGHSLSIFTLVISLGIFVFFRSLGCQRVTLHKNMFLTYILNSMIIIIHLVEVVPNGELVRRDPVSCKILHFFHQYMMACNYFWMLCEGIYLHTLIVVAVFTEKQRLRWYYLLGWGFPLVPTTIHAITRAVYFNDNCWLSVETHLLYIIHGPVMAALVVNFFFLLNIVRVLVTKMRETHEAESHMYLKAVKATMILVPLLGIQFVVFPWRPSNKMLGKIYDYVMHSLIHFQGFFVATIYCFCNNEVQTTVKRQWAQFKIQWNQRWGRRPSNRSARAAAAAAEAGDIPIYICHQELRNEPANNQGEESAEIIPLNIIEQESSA
T1 sequence (O60896 24-148 partner): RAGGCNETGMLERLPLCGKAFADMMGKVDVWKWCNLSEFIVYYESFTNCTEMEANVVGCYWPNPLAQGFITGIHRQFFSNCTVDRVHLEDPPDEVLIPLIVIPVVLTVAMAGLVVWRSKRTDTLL
The series can be described thus: cAMP-responsive element luciferase reporter assay, human AMY3R. The format is cell-based. Set-up: expressed in transfected cells. Particulars: for hAMY3R pEC50: luciferase (human receptor assay), Tables S12 and S14; for ratio hCTR/hAMY3R: ratio of luciferase EC50 values. For orientation: A reporter such as luciferase makes a cellular process visible.

A short description of series [1]: HMWP content by size-exclusion chromatography. The format is physicochemical. Particulars: covalent dimers and polymers prior to fibril formation testing, SEC, % of total absorbance area at 215 nm. Put shortly:
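Amylin analogs analysed before fibril-formation testing by isocratic SEC in 0.5 M NaCl, 10 mM sodium dihydrogen phosphate, 5 mM ortho-phosphoric acid, 50% (v/v) 2-propanol. HMWP (covalent dimers/polymers) given as peak absorbance area percentage of total, assuming equal extinction coefficients for HMWP and main peak.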
(In general: Size exclusion chromatography separates by hydrodynamic size, large species first.)

The nature of series [2]: Solubility versus pH profile.
Series [3] can be described thus: ThT assay: fibril formation propensity and peptide recovery. The format is physicochemical. Particulars: for ThT, pH 4.0 lag-time: 10 mM glycylglycine pH 4.0, 1 μM ThT; for recovery: residual dissolved peptide after 45 h of shaking, centrifugation and 0.22 μm filtration, HPLC, relative to amount before stress. In outline: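 Peptides at 250 μM in 10 mM glycylglycine (pH 4.0) or HEPES (pH 7.5) with 1 μM ThT, shaken at 37 °C, 960 rpm, for 45 h; ThT fluorescence (ex 444/em 485 nm) read every 20 min. Lag time is the lowest of four replicates (>45 h if none); recovery is soluble peptide by HPLC after centrifugation/filtration, relative to pre-stress.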

Where [4] appears, read: bis-tris-propane buffer, pH 6, aqueous buffer.
[5] abbreviates: bis-tris-propane buffer, pH 6.5, aqueous buffer.
[6] abbreviates: bis-tris-propane buffer, pH 7, aqueous buffer.
The mark [7] stands for this setting: bis-tris-propane buffer, pH 7.5, aqueous buffer.
Where [8] appears, read: bis-tris-propane buffer, pH 8, aqueous buffer.
[9] abbreviates: lactate buffer, pH 4, aqueous buffer.
Where [10] appears, read: lactate buffer, pH 5, aqueous buffer.
[11] abbreviates: 250 μM peptide, 37 °C, 960 rpm, 45 h, lowest of four replicas, average of experiments.

On to `CC[C@H](C)[C@H](NC(=O)[C@H](C)NC(=O)CNC(=O)[C@H](Cc1ccccc1)NC(=O)[C@H](CC(N)=O)NC(=O)[C@@H]1CCCN1C(=O)[C@H](CO)NC(=O)[C@H](CO)NC(=O)[C@H](Cc1c[nH]cn1)NC(=O)[C@H](CCCNC(=N)N)NC(=O)[C@H](CC(C)C)NC(=O)[C@H](Cc1ccccc1)NC(=O)[C@H](CC(N)=O)NC(=O)[C@H](C)NC(=O)[C@H](CC(C)C)NC(=O)[C@H](CCCNC(=N)N)NC(=O)[C@H](CCC(N)=O)NC(=O)[C@@H](NC(=O)[C@H](C)NC(=O)[C@@H]1CSSC[C@H](NC(=O)[C@H](CCCCN)NC(=O)CC[C@H](NC(=O)CCCCCCCCCCCCCCCCCCC(=O)O)C(=O)O)C(=O)N[C@@H](CC(N)=O)C(=O)N[C@@H]([C@@H](C)O)C(=O)N[C@@H](C)C(=O)N[C@@H]([C@@H](C)O)C(=O)N1)[C@@H](C)O)C(=O)N1CCC[C@H]1C(=O)N[C@@H](CO)C(=O)N[C@@H](CO)C(=O)N[C@H](C(=O)N[C@@H](CC(N)=O)C(=O)N[C@H](C(=O)NCC(=O)N[C@@H](CCCNC(=N)N)C(=O)N[C@@H](CC(N)=O)C(=O)N[C@H](C(=O)N[C@@H](Cc1ccc(O)cc1)C(N)=O)[C@@H](C)O)C(C)C)[C@@H](C)O` [Peptide 16], for which, on hAMY3R, the “hAMY3R pEC50” value is 9.66. Besides, the “ratio hCTR/hAMY3R” value at hAMY3R is 12. Moreover, in series [1] (analogs 10–21 (pH 4.0 series)), the HMWP is 2.2%. Further, the solubility (kinetic) in series [2] (setting [4]), in series [2] (setting [5]), in series [2] (setting [6]), in series [2] (setting [7]), in series [2] (setting [8]) and in series [2] (setting [9]) was at least 200 µM throughout. Also, the solubility (kinetic) in series [2] (setting [10]) was at least 200 µM. The “ThT, pH 4.0 lag-time” value in series [3] (setting [11]) is listed as above 45 h. The same molecule came in with a recovery in series [3] (pH 4.0) of 100%.

For `CC[C@H](C)[C@H](NC(=O)[C@H](C)NC(=O)CNC(=O)[C@H](Cc1ccccc1)NC(=O)[C@H](CC(N)=O)NC(=O)[C@@H]1CCCN1C(=O)[C@H](CO)NC(=O)[C@H](CO)NC(=O)[C@H](Cc1c[nH]cn1)NC(=O)[C@H](CCCNC(=N)N)NC(=O)[C@H](CC(C)C)NC(=O)[C@H](Cc1ccccc1)NC(=O)[C@H](CC(N)=O)NC(=O)[C@H](C)NC(=O)[C@H](CC(C)C)NC(=O)[C@H](CCCNC(=N)N)NC(=O)[C@H](CCC(N)=O)NC(=O)[C@@H](NC(=O)[C@H](C)NC(=O)[C@@H]1CSSC[C@H](NC(=O)[C@H](CCCCN)NC(=O)COCCOCCNC(=O)CC[C@H](NC(=O)CCCCCCCCCCCCCCCCCCC(=O)O)C(=O)O)C(=O)N[C@@H](CC(N)=O)C(=O)N[C@@H]([C@@H](C)O)C(=O)N[C@@H](C)C(=O)N[C@@H]([C@@H](C)O)C(=O)N1)[C@@H](C)O)C(=O)N1CCC[C@H]1C(=O)N[C@@H](CO)C(=O)N[C@@H](CO)C(=O)N[C@H](C(=O)N[C@@H](CC(N)=O)C(=O)N[C@H](C(=O)NCC(=O)N[C@@H](CO)C(=O)N[C@@H](Cc1c[nH]cn1)C(=O)N[C@H](C(=O)N[C@@H](Cc1ccc(O)cc1)C(N)=O)[C@@H](C)O)C(C)C)[C@@H](C)O` [Peptide 18] ({C20 diacid-γGlu-AEEA}-KCNTATCATQRLANFLRHSSPNFGAIPSSTNVGSHTY-NH2; disulfide 2-7; N-terminus assumed), the “ratio hCTR/hAMY3R” value on hAMY3R is on record as 19. The HMWP in series [1] (analogs 10–21 (pH 4.0 series)) was 3.5%. Moreover, the solubility (kinetic) in series [2] (setting [4]), in series [2] (setting [5]), in series [2] (setting [6]), in series [2] (setting [7]), in series [2] (setting [8]) and in series [2] (setting [9]) was at least 200 µM each time. This molecule also yielded a kinetic solubility in series [2] (setting [10]) of at least 200 µM. Moreover, the “ThT, pH 4.0 lag-time” value in series [3] (setting [11]) is on record as 15 h. In series [3] (pH 4.0), the recovery turned out to be 30%.

Consider `CC[C@H](C)[C@H](NC(=O)[C@H](C)NC(=O)CNC(=O)[C@H](Cc1ccccc1)NC(=O)[C@H](CC(N)=O)NC(=O)[C@@H]1CCCN1C(=O)[C@H](CO)NC(=O)[C@H](CO)NC(=O)[C@H](Cc1c[nH]cn1)NC(=O)[C@H](CCCNC(=N)N)NC(=O)[C@H](CC(C)C)NC(=O)[C@H](Cc1ccccc1)NC(=O)[C@H](CC(=O)O)NC(=O)[C@H](C)NC(=O)[C@H](CC(C)C)NC(=O)[C@H](CCCNC(=N)N)NC(=O)[C@H](CCC(N)=O)NC(=O)[C@@H](NC(=O)[C@H](C)NC(=O)[C@@H]1CSSC[C@H](NC(=O)[C@@H](N)CCCCNC(=O)CC[C@H](NC(=O)CC[C@H](NC(=O)CCCCCCCCCCCCCCCCCCC(=O)O)C(=O)O)C(=O)O)C(=O)N[C@@H](CC(N)=O)C(=O)N[C@@H]([C@@H](C)O)C(=O)N[C@@H](C)C(=O)N[C@@H]([C@@H](C)O)C(=O)N1)[C@@H](C)O)C(=O)N1CCC[C@H]1C(=O)N[C@@H](CO)C(=O)N[C@@H](CO)C(=O)N[C@H](C(=O)N[C@@H](CC(N)=O)C(=O)N[C@H](C(=O)NCC(=O)N[C@@H](CO)C(=O)N[C@@H](CC(=O)O)C(=O)N[C@H](C(=O)N[C@@H](Cc1ccc(O)cc1)C(N)=O)[C@@H](C)O)C(C)C)[C@@H](C)O` [Peptide 6] (H-K([γGlu-γGlu-C20 diacid])CNTATCATQRLADFLRHSSPNFGAIPSSTNVGSDTY-NH2; disulfide 2-7), for which, at hAMY3R, the “ratio hCTR/hAMY3R” value was 15. This molecule also came in with an HMWP in series [1] (analogs 1–9 (pH 7.5 series)) of 2.5%. In addition, the kinetic solubility in series [2] (setting [4]) was at least 200 µM; in series [2] (setting [5]), 190 µM (≈ 857 µg/mL); in series [2] (setting [6]), at least 200 µM; in series [2] (setting [7]), at least 200 µM; in series [2] (setting [8]) it was at least 200 µM; in series [2] (setting [9]), at least 200 µM. In addition, the solubility (kinetic) in series [2] (setting [10]) was at least 200 µM. The “ThT, pH 7.5 lag-time” value in series [3] (250 μM peptide, 10 mM HEPES pH 7.5, 1 μM ThT, 37 °C, 960 rpm, 45 h, lowest of four replicas, average of experiments) is above 45 h. In addition, the recovery in series [3] (pH 7.5) was 100%.

In the case of `CC[C@H](C)[C@H](NC(=O)[C@H](C)NC(=O)CNC(=O)[C@H](Cc1ccccc1)NC(=O)[C@H](CC(N)=O)NC(=O)[C@@H]1CCCN1C(=O)[C@H](CO)NC(=O)[C@H](CO)NC(=O)[C@H](Cc1c[nH]cn1)NC(=O)[C@H](CCCNC(=N)N)NC(=O)[C@H](CC(C)C)NC(=O)[C@H](Cc1ccccc1)NC(=O)[C@H](CC(N)=O)NC(=O)[C@H](C)NC(=O)[C@H](CC(C)C)NC(=O)[C@H](CCCNC(=N)N)NC(=O)[C@H](CCC(N)=O)NC(=O)[C@@H](NC(=O)[C@H](C)NC(=O)[C@@H]1CSSC[C@H](NC(=O)[C@H](CCCNC(=N)N)NC(=O)CNC(=O)CC[C@H](NC(=O)CCCCCCCCCCCCCCCCCCC(=O)O)C(=O)O)C(=O)N[C@@H](CC(N)=O)C(=O)N[C@@H]([C@@H](C)O)C(=O)N[C@@H](C)C(=O)N[C@@H]([C@@H](C)O)C(=O)N1)[C@@H](C)O)C(=O)N1CCC[C@H]1C(=O)N[C@@H](CO)C(=O)N[C@@H](CO)C(=O)N[C@H](C(=O)N[C@@H](CC(N)=O)C(=O)N[C@H](C(=O)NCC(=O)N[C@@H](CO)C(=O)N[C@@H](Cc1c[nH]cn1)C(=O)N[C@H](C(=O)N[C@@H](Cc1ccc(O)cc1)C(N)=O)[C@@H](C)O)C(C)C)[C@@H](C)O` [Peptide 19] ({C20 diacid-γGlu}-GRCNTATCATQRLANFLRHSSPNFGAIPSSTNVGSHTY-NH2; disulfide 3-8), at hAMY3R, the “hAMY3R pEC50” value was determined as 9.65. In addition, the “ratio hCTR/hAMY3R” value at hAMY3R is 6. The same molecule gave an HMWP in series [1] (analogs 10–21 (pH 4.0 series)) of 0.3%. Also, the solubility (kinetic) in series [2] (setting [4]) was at least 200 µM; in series [2] (setting [5]), at least 200 µM; in series [2] (setting [6]), at least 200 µM; in series [2] (setting [7]), 50 µM (≈ 224 µg/mL); in series [2] (setting [8]), 68 µM (≈ 305 µg/mL); in series [2] (setting [9]), at least 200 µM. This molecule came in with a solubility (kinetic) in series [2] (setting [10]) of at least 200 µM. Moreover, in series [3] (setting [11]), the “ThT, pH 4.0 lag-time” value is recorded as above 45 h. Further, the recovery in series [3] (pH 4.0) is given as 84%.
